Test results: publication PMC5760719, “Biotransformation of polyunsaturated fatty acids to bioactive hepoxilins and trioxilins by microbial enzymes” (Nature Communications, 2018)

Columns and labels:
Test in all cases: product formation by HPLC
Assay type in all cases: biochemical
[1] = biological target: T1, EH (epoxide hydrolase, MXAN_1644) (Myxococcus xanthus, UniProt Q1DBS7); details: pathway reaction with purified enzymes; HXD3 formed by 11-LOX, hydrolysis to TrXD3
T1 sequence (Q1DBS7 1-318): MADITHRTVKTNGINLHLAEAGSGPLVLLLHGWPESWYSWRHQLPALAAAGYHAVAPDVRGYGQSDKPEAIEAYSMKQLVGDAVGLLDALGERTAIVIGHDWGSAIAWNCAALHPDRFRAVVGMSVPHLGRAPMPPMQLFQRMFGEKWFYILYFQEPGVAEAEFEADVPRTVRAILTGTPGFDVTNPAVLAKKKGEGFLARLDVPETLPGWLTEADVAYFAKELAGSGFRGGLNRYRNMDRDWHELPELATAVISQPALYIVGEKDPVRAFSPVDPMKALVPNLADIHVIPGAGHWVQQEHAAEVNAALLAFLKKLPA

[2] = biological target: T2, 11-LOX (ARA 11-lipoxygenase, MXAN_1744) (Myxococcus xanthus, UniProt Q1DBH9); details: pathway reaction with purified enzyme; dioxygenation to 11-HpEPE
T2 sequence (Q1DBH9 1-675): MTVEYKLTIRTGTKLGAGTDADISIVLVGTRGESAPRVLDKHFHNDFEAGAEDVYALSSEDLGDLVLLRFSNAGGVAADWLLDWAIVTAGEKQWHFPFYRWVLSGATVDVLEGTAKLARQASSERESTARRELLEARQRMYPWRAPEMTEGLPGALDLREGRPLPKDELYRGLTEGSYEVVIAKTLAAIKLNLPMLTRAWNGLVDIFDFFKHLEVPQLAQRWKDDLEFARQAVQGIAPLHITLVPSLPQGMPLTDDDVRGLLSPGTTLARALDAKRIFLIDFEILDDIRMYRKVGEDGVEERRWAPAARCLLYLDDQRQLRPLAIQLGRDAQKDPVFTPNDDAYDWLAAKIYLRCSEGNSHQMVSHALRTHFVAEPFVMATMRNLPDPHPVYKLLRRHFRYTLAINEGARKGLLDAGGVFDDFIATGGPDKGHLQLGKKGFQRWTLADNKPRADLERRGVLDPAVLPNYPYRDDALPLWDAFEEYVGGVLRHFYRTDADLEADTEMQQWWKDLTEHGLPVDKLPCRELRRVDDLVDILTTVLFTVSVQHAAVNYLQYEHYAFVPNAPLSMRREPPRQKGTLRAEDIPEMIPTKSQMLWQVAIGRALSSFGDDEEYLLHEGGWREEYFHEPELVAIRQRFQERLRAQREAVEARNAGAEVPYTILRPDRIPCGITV

[3] = biological target: T3, 12-LOX (ARA 12-lipoxygenase, MXAN_1745) (Myxococcus xanthus, UniProt Q1DBH8); details: pathway reaction with purified enzyme; dioxygenation to 12-HpEPE
T3 sequence (Q1DBH8 1-715): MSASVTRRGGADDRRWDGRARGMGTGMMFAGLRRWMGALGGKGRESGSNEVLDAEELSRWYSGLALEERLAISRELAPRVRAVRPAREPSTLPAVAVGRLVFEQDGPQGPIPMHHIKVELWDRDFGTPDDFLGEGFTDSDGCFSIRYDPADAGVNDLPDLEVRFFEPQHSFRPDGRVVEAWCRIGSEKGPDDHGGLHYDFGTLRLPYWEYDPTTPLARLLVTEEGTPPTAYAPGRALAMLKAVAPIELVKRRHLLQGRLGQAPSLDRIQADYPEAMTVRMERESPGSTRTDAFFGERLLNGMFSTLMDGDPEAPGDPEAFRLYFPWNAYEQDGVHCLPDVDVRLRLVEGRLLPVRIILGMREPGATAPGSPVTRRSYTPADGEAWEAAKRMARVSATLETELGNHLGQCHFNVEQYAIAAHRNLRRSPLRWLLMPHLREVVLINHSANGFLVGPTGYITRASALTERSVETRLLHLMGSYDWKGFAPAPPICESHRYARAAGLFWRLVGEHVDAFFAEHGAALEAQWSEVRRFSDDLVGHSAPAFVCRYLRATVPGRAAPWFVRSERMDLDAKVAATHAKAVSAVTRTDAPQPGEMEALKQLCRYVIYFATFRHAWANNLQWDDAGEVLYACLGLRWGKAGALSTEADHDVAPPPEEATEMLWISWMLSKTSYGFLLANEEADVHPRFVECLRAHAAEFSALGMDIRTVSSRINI

CCCCC/C=C\C(O)C1OC1C/C=C\C/C=C\CCCC(=O)O (stereo not drawn) [HXD3]
product formation by HPLC [1]: HXB3 and HxD3, respectively, which were then converted to TrXB3 and TrXD3, respectively, by EH

CC/C=C\C/C=C\C/C=C\C/C=C\C/C=C\CCCC(=O)O [EPA, eicosapentaenoic acid]
product formation by HPLC [2]: 12-LOX and 11-LOX converted EPA to 12-hydroperoxypentaenoic acid (HpEPE) and 11-HpEPE, respectively | product formation by HPLC [3]: 12-LOX and 11-LOX converted EPA to 12-hydroperoxypentaenoic acid (HpEPE) and 11-HpEPE, respectively
